The results in this text go back to patent publication US8637525B2, “Compounds for the reduction of beta-amyloid production” (Bristol-Myers Squibb Company, priority 2009, dated 2014).

Where a name gives a salt, the structure may show the parent alone.

The first experiment relates to Aβ1-42 production. Description: Cellular assay for inhibition of Aβ1-42 production (H4 APP751 SWE clone 8.20). The format is cell-based. Conditions: 19 h, H4 APP751 SWE clone 8.20 cells, 19 h incubation; class symbols; read-out: Activity Rating (Aβ42 cellular IC50). Here is the method: Cellular Assays for Inhibition of Aβ1-40 and Aβ1-42 Production
H4 cells stably transfected with APP751 containing the Swedish mutation (H4 APP751 SWE clone 8.20, developed at BMS) were maintained in log phase through twice weekly passage at a 1:20 split. […] Following incubation for 19 h in 5% CO2 at 37° C., plates were briefly centrifuged (1000 rpm, 5 min). A 10 μl aliquot from each well was transferred to a second assay plate (Costar 3709) for Aβ40 measurements. Antibody cocktails were freshly prepared by dilution into 40 mM Tris-HCl (pH 7.4) with 0.2% BSA and added to assay plates. For Aβ42 measurements, antibodies specific for the Aβ42 neoepitope (565, developed at BMS; conjugated to the Wallac reagent (Perkin Elmer)) and the N-terminal sequence of Aβ peptide (26D6, developed at SIBIA; conjugated to APC (Perkin Elmer)) were mixed and 20 μl of the mixture was added to each well of the incubated cell plate yielding a final concentration of 0.8 ng/well 565 and 75 ng/well 26D6. For the Aβ40 measurements, antibodies specific for the Aβ40 neoepitope (TSD, developed at BMS; conjugated to the Wallac reagent (Perkin Elmer)) and 26D6 as described above were mixed and 20 μl of the mixture was added to the 10 μl aliquots which had been removed previously from the cell plate yielding a final concentration of 1.6 ng/well TSD and 17.5 ng/well 26D6. Assay plates containing antibodies were sealed with aluminum foil and incubated overnight at 4° C. Signal was determined using a Viewlux counter (Perkin Elmer) and IC50 values determined using curve fitting in CurveMaster (Excel Fit based).
`CNc1nc(Nc2ccc(-n3cnc(Cl)c3)c(OC)c2)nc2c1COCC2c1ccc(F)cc1` (centres unmarked) [Example 60B, N2-(4-(4-chloro-1H-imidazol-1-yl)-3-methoxyphenyl)-8-(4-fluorophenyl)-N4-methyl-7,8-dihydro-5H-pyrano[4,3-d]pyrimidine-2,4-diamine]: the IC50 (as a rule, the concentration needed to halve the response being measured) is 10 to 100 nM. The same measure, in the same setting: for `CCNc1nc(Nc2ccc(-n3cnc(C)n3)c(OC)c2)nc2c1COCC2c1ccc(F)cc1` (racemic) [Example 55, N4-ethyl-8-(4-fluorophenyl)-N2-(3-methoxy-4-(3-methyl-1H-1,2,4-triazol-1-yl)phenyl)-7,8-dihydro-5H-pyrano[4,3-d]pyrimidine-2,4-diamine] the value was 10 to 100 nM; for `CNc1nc(Nc2ccc(-n3cnc(C)n3)c(OC)c2)nc2c1CCC2c1ccc(N(C)C)cc1` (centres unmarked) [Example 273, 7-(4-(dimethylamino)phenyl)-N2-(3-methoxy-4-(3-methyl-1H-1,2,4-triazol-1-yl)phenyl)-N4-methyl-6,7-dihydro-5H-cyclopenta[d]pyrimidine-2,4-diamine], 10 to 100 nM. Take `Cc1ncnn1-c1ccc(Nc2nc3c(c(N(C)C)n2)COCC3c2ccc(Cl)cc2)cc1F` (centres unmarked) [Example 67, 8-(4-chlorophenyl)-N^2-(3-fluoro-4-(5-methyl-1H-1,2,4-triazol-1-yl)phenyl)-N^4,N^4-dimethyl-7,8-dihydro-5H-pyrano[4,3-d]pyrimidine-2,4-diamine]: the IC50 fell in the range of 10 to 100 nM. With `CNc1nc(Nc2ccc3nc(C)oc3c2)nc2c1CCC2c1ccccc1` (centres unmarked) [Example 252, N4-methyl-N2-(2-methylbenzo[d]oxazol-6-yl)-7-phenyl-6,7-dihydro-5H-cyclopenta[d]pyrimidine-2,4-diamine], the IC50 is greater than 1000 nM.

Take `CNc1nc(Nc2ccc(-n3ncnc3C)c(F)c2)nc2c1CCC2c1ccc(F)cc1` (single isomer, unassigned) [Example 26A, N^2-(3-fluoro-4-(5-methyl-1H-1,2,4-triazol-1-yl)phenyl)-7-(4-fluorophenyl)-N^4-methyl-6,7-dihydro-5H-cyclopenta[d]pyrimidine-2,4-diamine]: the IC50 fell in the range of 10 to 100 nM. The same measure, in the same setting: for `Cc1ncnn1-c1ccc(Nc2nc3c(c(N4CC(F)(F)C4)n2)COCC3c2ccc(Cl)cc2)cc1F` (centres unmarked) [Example 68, 8-(4-chlorophenyl)-4-(3,3-difluoroazetidin-1-yl)-N-(3-fluoro-4-(5-methyl-1H-1,2,4-triazol-1-yl)phenyl)-7,8-dihydro-5H-pyrano[4,3-d]pyrimidin-2-amine] the value was 10 to 100 nM; for `COc1cc(Nc2nc3c(c(N4C[C@@H](C)O[C@@H](C)C4)n2)COC3c2ccc(F)cc2)ccc1-n1cnc(Cl)c1` (mixture of isomers) [Example 84, N-(4-(4-chloro-1H-imidazol-1-yl)-3-methoxyphenyl)-4-((2S,6R)-2,6-dimethylmorpholino)-7-(4-fluorophenyl)-5,7-dihydrofuro[3,4-d]pyrimidin-2-amine, 2 TFA], 10 to 100 nM; for `CCNc1nc(Nc2ccc(-n3cnc(Cl)c3)c(OC)c2)nc2c1COCC2c1ccc(C#N)cc1` (racemic) [Example 121, 4-(2-(4-(4-chloro-1H-imidazol-1-yl)-3-methoxyphenylamino)-4-(ethylamino)-7,8-dihydro-5H-pyrano[4,3-d]pyrimidin-8-yl)benzonitrile, TFA], 10 to 100 nM.

Staying with this experiment, now noted: 19 h, H4 APP751 SWE clone 8.20 cells, 19 h incubation; read-out: Activity Rating (Aβ42 cellular IC50), numeric value.
Regarding `COc1cc(Nc2nc3c(c(N4CC(F)(F)C4)n2)CCC3c2ccc(OC(F)(F)F)cc2)ccc1-n1cnc(Cl)c1` (single isomer, unassigned) [Example 99B, N-(4-(4-chloro-1H-imidazol-1-yl)-3-methoxyphenyl)-4-(3,3-difluoroazetidin-1-yl)-7-(4-(trifluoromethoxy)phenyl)-6,7-dihydro-5H-cyclopenta[d]pyrimidin-2-amine], the 50% inhibitory concentration (IC50) came to 190 nM. For `COc1ccc(CN2CCc3c(nc(Nc4ccc(-n5cnc(Cl)c5)c(OC)c4)nc3N3CC[C@H](F)C3)C2c2ccc(F)cc2)cc1` (stereo partly drawn) [Example 167A, N-(4-(4-chloro-1H-imidazol-1-yl)-3-methoxyphenyl)-8-(4-fluorophenyl)-4-((S)-3-fluoropyrrolidin-1-yl)-7-(4-methoxybenzyl)-5,6,7,8-tetrahydropyrido[3,4-d]pyrimidin-2-amine], the IC50 is 26 nM.

The same experiment, now with this note: H4 APP751 SWE clone 8.20 cells, 19 h incubation; class symbols; read-out: Activity Rating (Aβ42 cellular IC50).
For `CNc1nc(Nc2ccc(-n3cnc(Cl)c3)c(OC)c2)nc2c1COCC2c1ccccc1` (single isomer, unassigned) [Example 51B, N^2-(4-(4-chloro-1H-imidazol-1-yl)-3-methoxyphenyl)-N^4-methyl-8-phenyl-7,8-dihydro-5H-pyrano[4,3-d]pyrimidine-2,4-diamine], the IC50 was 1.5 to 9.9 nM. Consider `COc1cc(Nc2nc3c(c(N4CCC4)n2)CCC3c2ccc(OC(F)(F)F)cc2)ccc1-n1cnc(Cl)c1` (single isomer, unassigned) [Example 101B, 4-(azetidin-1-yl)-N-(4-(4-chloro-1H-imidazol-1-yl)-3-methoxyphenyl)-7-(4-(trifluoromethoxy)phenyl)-6,7-dihydro-5H-cyclopenta[d]pyrimidin-2-amine], for which the IC50 is 10 to 100 nM. Same read-out and setting: the figure for `CNc1nc(Nc2ccc(-n3cnc(C)c3)c(OC)c2)nc2c1COCC2c1ccc(Cl)cc1` (single isomer, unassigned) [Example 70A, 8-(4-chlorophenyl)-N^2-(3-methoxy-4-(4-methyl-1H-imidazol-1-yl)phenyl)-N^4-methyl-7,8-dihydro-5H-pyrano[4,3-d]pyrimidine-2,4-diamine] is 1.5 to 9.9 nM; for `Cc1ncnn1-c1ccc(Nc2nc3c(c(N4CC(F)(F)C4)n2)CCC3c2ccc(F)cc2)cc1F` (single isomer, unassigned) [Example 16B, 4-(3,3-difluoroazetidin-1-yl)-N-(3-fluoro-4-(5-methyl-1H-1,2,4-triazol-1-yl)phenyl)-7-(4-fluorophenyl)-6,7-dihydro-5H-cyclopenta[d]pyrimidin-2-amine] it is 100 to 1000 nM; for `CNc1nc(Nc2ccc(-n3cnc(Cl)c3)c(OC)c2)nc2c1CCC2c1ccc(F)cc1F` (single isomer, unassigned) [Example 109B, N^2-(4-(4-Chloro-1H-imidazol-1-yl)-3-methoxyphenyl)-7-(2,4-difluorophenyl)-N^4-methyl-6,7-dihydro-5H-cyclopenta[d]pyrimidine-2,4-diamine] it is 1.5 to 9.9 nM.

Regarding `CCN(C)c1nc(Nc2ccc(-n3cnc(Cl)c3)c(OC)c2)nc2c1COCC2c1ccccc1` (single isomer, unassigned) [Example 52B, N^2-(4-(4-Chloro-1H-imidazol-1-yl)-3-methoxyphenyl)-N^4-ethyl-N^4-methyl-8-phenyl-7,8-dihydro-5H-pyrano[4,3-d]pyrimidine-2,4-diamine], the IC50 lay within 10 to 100 nM. Regarding `[2H]C([2H])([2H])Nc1nc(Nc2ccc(-n3cnc(Cl)c3)c(OC)c2)nc2c1CCC2c1ccccc1` (single isomer, unassigned) [Example 176A, N^2-(4-(4-Chloro-1H-imidazol-1-yl)-3-methoxyphenyl)-N^4-trideuteromethyl-7-phenyl-6,7-dihydro-5H-cyclopenta[d]pyrimidine-2,4-diamine], the IC50 lay within 1.5 to 9.9 nM.

Consider `CCNc1nc(Nc2ccc(-n3cnc(Cl)c3)c(OC)c2)nc2c1COCC2c1ccc(F)c(F)c1` (centres unmarked) [Example 113B, N2-(4-(4-chloro-1H-imidazol-1-yl)-3-methoxyphenyl)-8-(3,4-difluorophenyl)-N4-ethyl-7,8-dihydro-5H-pyrano[4,3-d]pyrimidine-2,4-diamine], for which the IC50 was in the range of 10 to 100 nM. On to `CNc1nc(Nc2ccc(-n3cnc(Cl)c3)c(OC)c2)nc2c1CN(S(C)(=O)=O)CC2c1ccc(F)cc1` (centres unmarked) [Example 154, N2-(4-(4-chloro-1H-imidazol-1-yl)-3-methoxyphenyl)-8-(4-fluorophenyl)-N4-methyl-6-(methylsulfonyl)-5,6,7,8-tetrahydropyrido[4,3-d]pyrimidine-2,4-diamine], for which the IC50 lay in the range of 10 to 100 nM. As to `COc1cc(Nc2nc3c(c(N4CCC(F)C4)n2)CCOC3c2ccc(F)cc2)ccc1-n1cnc(Cl)c1` (stereo in doubt) [Example 91A, N-(4-(4-chloro-1H-imidazol-1-yl)-3-methoxyphenyl)-8-(4-fluorophenyl)-4-((S)-3-fluoropyrrolidin-1-yl)-6,8-dihydro-5H-pyrano[3,4-d]pyrimidin-2-amine], the half-inhibitory concentration (IC50) is 1.5 to 9.9 nM. Still for that read-out and setting: the figure for `CNc1nc(Nc2ccc(-n3cnc(Cl)c3)c(OC)c2)nc2c1CCCC2c1ccccc1` (centres unmarked) [Example 203A, N2-(4-(4-chloro-1H-imidazol-1-yl)-3-methoxyphenyl)-N4-methyl-8-phenyl-5,6,7,8-tetrahydroquinazoline-2,4-diamine] is 1.5 to 9.9 nM.

The same experiment, now with this note: H4 APP751 SWE clone 8.20 cells, 19 h incubation; read-out: Activity Rating (Aβ42 cellular IC50), numeric value.
Regarding `CNc1nc(Nc2ccc(-n3cnc(Cl)c3)c(OC)c2)nc2c1/C(=N/OC)CC2c1ccccc1` (centres unmarked) [Example 201A, (E)-2-(4-(4-chloro-1H-imidazol-1-yl)-3-methoxyphenylamino)-4-(methylamino)-7-phenyl-6,7-dihydro-5H-cyclopenta[d]pyrimidin-5-one O-methyl oxime], the IC50 was determined as 10 nM.
